Test results taken from publication PMC12114195, “Synthesis, Experimental and Computational Evaluation of SERAAK1 as a 5-HT2A Receptor Ligand” (Molecules, 2025).

Tests used:
[1] = PAMPA passive permeability; format: in vitro ADME; conditions: for Papp at 5 h, 100 μM: PBS pH 7.4, 5 h, read-out: Pe ± SD
Experimental: The PAMPA assay was utilized to evaluate the ability of SERAAK1 to passively diffuse through a lipid-infused artificial membrane. The results, gathered in Table 3, were expressed as permeability coefficient Pe, calculated according to the formulas described elsewhere.
The pre-coated PAMPA Plate System Gentest from Corning (Tewksbury, MA, USA) was used in experiments using the instructions of the manufacturer. SERAAK1 and reference compounds were diluted in the PBS buffer (pH 7.4) to the final concentration of 100 μM and placed on the 96-well donor microplate. The exact quantity of molecules that successfully penetrated from donor to acceptor wells through the phospholipid membrane was estimated after 5 h of incubation using UPLC-MS spectrometry (Waters ACQUITY™ TQD system with the TQ Detector, Waters, Milford, CT, USA). The final permeability coefficient (Pe, cm/s) calculation was performed using the formula provided by the vendor of the PAMPA Plate System.

[2] = test system: mice; experiment: Elevated plus maze test (EPM); format: in vivo; conditions: 30 mg/kg i.p.
Experimental: The effect of SERAAK1 on anxiety-like behavior in mice was assessed using the elevated plus maze test (EPM). In this test we measured three parameters: time spent in the open arms of the maze, the number of entries into the open arms—expressed as a percentage of the time spent/entries in both types of maze arms and the total number of entries into the open and closed arms of the maze, which is an additional measure of the animals’ locomotor activity. The anxiolytic activity of mice after SERAAK1 administration was expressed as the percentage of time spent in the open arms of the maze and the number of entries into these arms. Statistical analysis with a t-test indicated a significant influence of acute administration of SERAAK1 (30 mg/kg) on anxiety responses.
(§1) The investigated compound (SERAAK1) in all tests was administered intraperitoneally (i.p.), spread in a drop of Tween 80, diluted by an aqueous solution of 0.5% methylcellulose (tylose) and injected 60 min before the tests in a volume of 10 mL/kg. Initial doses of the compound were selected based on available literature and our earlier studies. Control groups received tylose injections of the same volume and via the same route of administration.
All experiments were conducted on a 6-week-old naïve male Swiss mice weighing 24–30 g in the Experimental Medicine Center, Medical University of Lublin, Poland. The animals were housed (four/five per cage) under standard laboratory conditions (room temperature of 22 ± 1 °C and a relative humidity of 50–60% during a 12/12 h light-dark cycle, lights on at 8:00). The animals had free access to laboratory food—pellet diet (LSM, Agropol Motycz, Marynin, Poland) and tap water—except for the short time when they were removed from the cages for testing. […]
Anxiety behaviors were measured using the EPM test according to the Lister method. […] The time spent in the EPM open arms, the number of entries into the open arms, and the total number of entries into both types of arms were measured.

[3] = molecular target: 5-HT1A receptor; design: method as in PMID 38619283; conditions: radioligand binding; cited from earlier work
[4] = molecular target: T1, CYP3A4 (Homo sapiens, UniProt P08684); experiment: CYP3A4 P450 Glo luminescent assay; format: in vitro ADME
T1 construct: purchased Promega
Experimental: Briefly, the effect of SERAAK1 on CYP3A was determined using a luminescent luciferase-based assay. A 10 µM concentration of the compound was tested in two experiments, each with three replicates.
(§2) Luminescence-based CYP3A4 P450 Glo and CYP2D6 P450 Glo kits (Promega, Madison, WI, USA) were used to assess the impact of SERAAK1 on the activity of two distinct cytochrome P450 isoforms. These assays were performed according to the protocol of the manufacturer and in alignment with the previously described methods. Each assay was performed twice in triplicate. Luminescence signals were measured using a Spark microplate reader (Tecan, Männedorf, Zürich, Switzerland).

[5] = test system: mice; experiment: Chimney test (motor coordination); format: in vivo; conditions: 30 mg/kg and 60 mg/kg i.p., 60 min after administration
Experimental: (§3) This conclusion was supported by results from two widely used behavioral tests: the chimney test (Figure 10) and the rotarod test (Figure 11), conducted 60 min after the substance administration. In the chimney test, we measured the time it took the mice to exit the chimney, and in the second test, the time the animals stayed on the rod rotating at a constant speed of 18 rpm.
as §1
(§4) All experiments were conducted on a 6-week-old naïve male Swiss mice weighing 24–30 g in the Experimental Medicine Center, Medical University of Lublin, Poland. The animals were housed (four/five per cage) under standard laboratory conditions (room temperature of 22 ± 1 °C and a relative humidity of 50–60% during a 12/12 h light-dark cycle, lights on at 8:00). […]
(§5) The effects of SERAAK1 were also measured in the rotarod and chimney tests. In the first test, the ability of mice to balance on a rotating rod (18 rpm, constantly) was assessed for 1 min. […]

[6] = test system: mice; experiment: Amphetamine-induced hyperactivity; format: in vivo
Experimental: In this test, we measured the distance traveled by the mice during the 20 min observation period. […] Pretreatment concerns the administration of amphetamine, and treatment concerns the tested compound.
as §1, §4
(§6) The automatic device—actimeter Opto-Varimex-4 Auto-Track (Columbus Instruments, Columbus, OH, USA)—was used to measure the locomotor activity of experimental animals. The mice were individually placed in cages for 25 min: the first 5 min for acclimatization and then the next 20 min for observation while the distance (in centimeters) traveled during this time was measured. […]

[7] = test system: mice; experiment: Spontaneous locomotor activity; format: in vivo; conditions: 30 and 60 mg/kg i.p., 60 min before the test, one-way ANOVA
Experimental: Spontaneous locomotor activity is a meaningful parameter helping to understand the physical and mental status of laboratory animals, providing insights into general activity levels, arousal and potential sedative or stimulant effects of administered substances. We measured the distance traveled by the mice during the 20 min observation period.
as §1
(§7) All experiments were conducted on a 6-week-old naïve male Swiss mice weighing 24–30 g in the Experimental Medicine Center, Medical University of Lublin, Poland. […]
as §6

[8] = test system: SH-SY5Y cells; experiment: MTS cytotoxicity assay, SH-SY5Y; format: cell-based, human; conditions: 72 h
Experimental: (§8) The cytotoxic properties of SERAAK1 were tested in two human cell lines, selected based on their relevance to the study objectives—the HepG2 and SH-SY5Y. Figure 7 and Figure 8 depict the results obtained in the cytotoxicity assays performed using the MTS.
(§9) The cytotoxic effect of SERAAK1 was evaluated using the colorimetric MTS assay. The study was conducted on HepG2 and SH-SY5Y cell lines, following the same protocol. Cell lines were obtained from the American Type Culture Collection (Manassas, VA, USA) and maintained under standard conditions (5% CO2, 37 °C) in DMEM/F12 medium (#31330-038, ThermoFisher Scientific, Waltham, MA, USA), supplemented with 10% FBS (#A5256801, ThermoFisher Scientific) and Penicillin-Streptomycin (#15140-122, ThermoFisher Scientific) until used in the experiment. Cells at passage numbers between 15 and 25 were seeded in 96-well plates at the concentration of 5000 cells/well in 200 μL of medium and incubated for 24 h at 37 °C with 5% CO2. […] Subsequently, plates were incubated at 37 °C, and absorbance was measured using a Spark microplate reader after 1 h for HepG2 and 3 h for SH-SY5Y. Final cell viability was calculated relative to control wells (100% viability) and wells with 10 μM doxorubicin (0% viability). […]

[9] = test system: mice; experiment: Forced swim test (FST); format: in vivo; conditions: 30 mg/kg i.p., 60 min before the test, vs control, p < 0.01
Experimental: The forced swim test (FST) is commonly used in rodent laboratory models to assess the efficacy of a potential antidepressant drug in alleviating or preventing depressive-like states. In the FST, we estimated the immobility time of animals, illustrating it […]. In this study, a t-test was used to assess the statistically significant effect of acute administration of SERAAK1 (30 mg/kg) on mice behavior in the FST.
as §1, §7
The study was carried out using the test proposed by R. Porsolt. […] The immobility time, considered as the state in which the mouse performs only those movements necessary to keep its head above the water, is measured between 2 and 6 min.

[10] = molecular target: 5-HT2A receptor; design: method as in PMID 38619283; conditions: radioligand binding; cited from earlier work
[11] = molecular target: CYP2D6 (Homo sapiens, UniProt P10635); experiment: in vitro; conditions: for inhibition at 10 µM: human
Experimental: as §2

[12] = molecular target: 5-HT2A receptor; design: method as in PMID 38619283; conditions: functional studies; read-out: Kb, antagonist of the 5-HT2A receptor; cited from earlier work
[13] = test system: HepG2 cells; experiment: MTS cytotoxicity assay, HepG2; format: cell-based, human; conditions: 72 h
Experimental: as §8, §9

[14] = test system: mice; experiment: Rotarod test (motor coordination); format: in vivo; conditions: 30 mg/kg and 60 mg/kg i.p., 60 min after administration
Experimental: as §3, §1, §4, §5

[15] = molecular target: D2 receptor; design: method as in PMID 38619283; conditions: radioligand binding; cited from earlier work
[16] = 60 min before the test, vs control, p < 0.001
[17] = 30 µM (highest concentration tested)

CYP2D6, sequence (P10635 whole entry): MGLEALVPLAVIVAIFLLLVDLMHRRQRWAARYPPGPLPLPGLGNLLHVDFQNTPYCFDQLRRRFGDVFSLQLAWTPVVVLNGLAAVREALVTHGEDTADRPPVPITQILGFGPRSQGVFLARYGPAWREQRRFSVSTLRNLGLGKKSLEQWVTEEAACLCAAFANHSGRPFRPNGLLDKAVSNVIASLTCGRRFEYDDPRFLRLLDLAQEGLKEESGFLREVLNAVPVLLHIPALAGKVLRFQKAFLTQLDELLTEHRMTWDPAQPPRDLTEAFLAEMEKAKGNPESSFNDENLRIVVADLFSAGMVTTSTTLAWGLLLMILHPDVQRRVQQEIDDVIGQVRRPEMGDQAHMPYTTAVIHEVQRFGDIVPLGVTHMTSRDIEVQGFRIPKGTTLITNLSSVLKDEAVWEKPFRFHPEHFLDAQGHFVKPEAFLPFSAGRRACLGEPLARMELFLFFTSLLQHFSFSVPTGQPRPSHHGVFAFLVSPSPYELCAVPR
T1 sequence (P08684 whole entry): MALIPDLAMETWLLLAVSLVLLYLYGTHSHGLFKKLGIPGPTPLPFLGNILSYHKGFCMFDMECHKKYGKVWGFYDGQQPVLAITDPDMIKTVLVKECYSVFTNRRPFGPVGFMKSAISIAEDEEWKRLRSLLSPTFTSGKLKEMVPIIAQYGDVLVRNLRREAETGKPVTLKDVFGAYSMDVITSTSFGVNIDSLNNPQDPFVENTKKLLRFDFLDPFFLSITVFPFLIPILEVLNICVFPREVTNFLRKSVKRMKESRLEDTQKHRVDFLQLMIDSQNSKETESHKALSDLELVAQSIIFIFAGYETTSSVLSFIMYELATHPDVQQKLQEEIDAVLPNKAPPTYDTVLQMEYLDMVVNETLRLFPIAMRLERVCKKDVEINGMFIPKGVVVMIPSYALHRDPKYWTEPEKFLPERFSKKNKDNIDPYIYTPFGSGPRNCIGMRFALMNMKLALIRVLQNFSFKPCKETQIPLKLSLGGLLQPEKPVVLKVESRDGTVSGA

`CCN1CCCC1CNC(=O)c1cc(S(N)(=O)=O)ccc1OC` (stereo not shown) [Sulpiride, reference compound] gave a Papp at 5 h, 100 μM [1] of 0.11 ± 0.02 nm/s.
In the case of `OC(COC(c1ccccc1)c1ccccc1)CN1CCN(C(c2ccccc2)c2ccccc2)CC1` (stereo not shown) [SERAAK1, 1-(benzhydryloxy)-3-(4-benzhydrylpiperazin-1-yl)propan-2-ol], the “Total arm entries, overall mobility (EPM)” value [2] is reported as “did not change the overall mobility”, the “Increase in percentage of open arm entries (EPM)” value [2, 16] is reported as 19.34% and the “Increase in percentage of time spent on the open arms (EPM)” value [2, 16] is reported as 12.9%. The Ki [3] was 1.43 ± 0.108 µM, the “CYP3A4 induction, dose-response” value ([4]; concentrations > 100 nM, up to 10 µM) was “induce CYP3A4 in a dose-dependent manner” and the inhibition at 10 µM ([4]; human, CYP3A4 P450 Glo kit (Promega), 10 µM, a negative value indicates a stimulating effect, read-out: CYP3A4 Activity Inhibition, Evaluated in the Concentration of 10 µM [% of Inhibition ± SEM]) was -352 ± 9%. The “Motor coordination, chimney test (time to exit the chimney)” value [5] was “did not reveal any statistically significant effects”, the “Decrease of amphetamine-induced hyperactivity (distance traveled in 20 min)” value ([6]; 30 mg/kg with amphetamine (5 mg/kg), vs amphetamine-treated group, p < 0.05) was 22.15% and the “Spontaneous locomotor activity (distance traveled in 20 min)” value [7] was “did not show any significant changes”. The “Toxic influence on SH-SY5Y cells at lower concentrations” value ([8]; 0.3 µM, 3 µM) was “no toxic influence”, the “% inhibition of cell proliferation, SH-SY5Y” value [8, 17] was 50 ± 5% and the “Reduction in immobility time (FST)” value [9] was 29.2%. For the same molecule, the Ki [10] was 0.826 ± 0.051 µM, the “CYP2D6 inhibition concentration range (IC50)” value [11] was “submicromolar” and the inhibition at 10 µM [11] was 95 ± 1%. The Kb [12] was 0.462 µM, the “Toxic influence on HepG2 cells at lower concentrations” value ([13]; 0.3 µM, 3 µM) was “no toxic influence” and the “% inhibition of cell proliferation (cytotoxic effect), HepG2” value [13, 17] was 84 ± 3%. For the same molecule, the “Motor coordination, rotarod test (time on the rod, 18 rpm)” value [14] was “did not reveal any statistically significant effects”, the Ki [15] was 1.29 ± 0.323 µM and the “Passive permeation through the lipid bilayer” value [1] was “did not permeate passively”. For the same molecule, the Papp at 5 h, 100 μM [1] was < 0.1 nm/s.
For `CC(N)Cc1ccccc1` (stereo not shown) [amphetamine, reference compound], the “Locomotor activity (distance traveled) vs saline-treated group” value ([6]; amphetamine alone, p < 0.001) was “increased the locomotor activity”.
`C=C[C@H]1C[N@@]2CC[C@H]1C[C@@H]2[C@@H](O)c1ccnc2ccc(OC)cc12` [Quinidine, reference compound] gave an inhibition at 10 µM ([11]; CYP2D6 P450 Glo kit (Promega)) of 100 ± 1%.
